The record followed here is ChEMBL document CHEMBL4311972, “Discovery of a benzothiophene-flavonol halting miltefosine and antimonial drug resistance in Leishmania parasites through the application of medicinal chemistry, screening and genomics” (Eur J Med Chem, 2019).

SMILES strings stand for the structures.

One data set relates to Trypanosoma brucei. As to the kind of experiment: Antitrypanosomal activity against Trypanosoma brucei bloodstream form assessed as parasite growth inhibition incubated for 72 hrs by resazurin dye based assay. In kind it is functional, organism-based. To be noted: Trypanosoma brucei, 72 h; read-out: EC50.
Data set [1] is described as follows: Selectivity index, ratio of CC50 for human THP1 cells to EC50 for luciferase expressing intracellular amastigote stage of Leishmania infantum infected in human THP1 cells. In kind it is toxicity, cell-based. Particulars: read-out: Ratio CC50/EC50.
For a further data set, the target named is CYP3A4 (Homo sapiens, UniProt P08684). As to the kind of experiment: Inhibition of human microsomal CYP3A4 expressed in baculovirus infected insect cells at 10 uM using luciferin-IPA as substrate preincubated with enzyme/substrate mixture for 30 mins followed by further incubation with NADPH for 30 mins by CYP450 luciferase Glo assay relative to control. To be noted: probe luciferin-IPA. The format is ADME.

The target in the next data set is CYP2C9 (Homo sapiens, UniProt P11712). As to the kind of experiment: Inhibition of human microsomal CYP2C9 expressed in baculovirus infected insect cells at 10 uM using luciferin-H as substrate preincubated with enzyme/substrate mixture for 30 mins followed by further incubation with NADPH for 30 mins by CYP450 luciferase Glo assay relative to control. In kind it is ADME. To be noted: probe luciferin-H.

The nature of data set [2]: Cytotoxicity against human A549 cells assessed as cell growth at […] incubated for 48 hrs by Celltiter-Glo luminescence assay relative to control. The format is cell-based. Further details: dose or concentration left out as unconfirmed. To be noted: read-out: Activity.
The nature of data set [3]: Cytotoxicity against human THP1 cells by MTT assay. The format is cell-based, THP-1.
The test system of a further data set is Leishmania infantum. The experiment in a line: Antileishmanial activity against luciferase expressing intracellular amastigote stage of Leishmania infantum infected in human THP1 cells assessed as parasite growth inhibition measured after 48 to 72 hrs by steady-glo luciferase assay. In kind it is functional, organism-based. Particulars: Leishmania infantum, THP-1; read-out: EC50.

The target in the next data set is CYP2C19 (Homo sapiens, UniProt P33261). As to the kind of experiment: Inhibition of human microsomal CYP2C19 expressed in baculovirus infected insect cells at 10 uM using luciferin-H EGE as substrate preincubated with enzyme/substrate mixture for 30 mins followed by further incubation with NADPH for 30 mins by CYP450 luciferase Glo assay relative to control. In kind it is ADME. Particulars: probe luciferin-H EGE.

The target in another data set is T1, CYP1A2 (Homo sapiens, UniProt P05177).
T1 sequence (P05177 whole entry): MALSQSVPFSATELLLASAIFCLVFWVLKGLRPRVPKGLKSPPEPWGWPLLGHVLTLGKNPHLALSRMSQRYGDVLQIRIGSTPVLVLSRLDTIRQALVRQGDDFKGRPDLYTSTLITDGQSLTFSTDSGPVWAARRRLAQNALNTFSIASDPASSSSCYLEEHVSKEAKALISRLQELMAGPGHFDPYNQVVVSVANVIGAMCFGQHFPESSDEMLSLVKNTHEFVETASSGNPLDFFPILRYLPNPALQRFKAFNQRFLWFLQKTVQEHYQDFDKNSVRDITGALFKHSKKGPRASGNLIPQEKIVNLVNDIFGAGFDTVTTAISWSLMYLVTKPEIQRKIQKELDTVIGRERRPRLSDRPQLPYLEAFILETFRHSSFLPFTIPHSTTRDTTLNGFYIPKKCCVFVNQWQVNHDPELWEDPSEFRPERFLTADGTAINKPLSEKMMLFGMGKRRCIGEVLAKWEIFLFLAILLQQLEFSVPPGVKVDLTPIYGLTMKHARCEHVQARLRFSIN
The experiment in a line: Inhibition of human microsomal CYP1A2 expressed in baculovirus infected insect cells at 10 uM using luciferin-1A2 as substrate preincubated with enzyme/substrate mixture for 30 mins followed by further incubation with NADPH for 30 mins by CYP450 luciferase Glo assay relative to control. To be noted: probe luciferin-1A2. In kind it is ADME.

A further data set deals with 786-0. The experiment in a line: Mitochondrial toxicity in human 786-0 cells at 10 uM incubated with compound for 6 hrs followed by incubation with MitoTracker Red chloromethyl-X-rosamine dye for 45 mins by imaging analysis. In kind it is cell-based. Particulars: 786-0, 6 h.
A further data set has as its target hERG (KCNH2) (Homo sapiens, UniProt Q12809). As to the kind of experiment: Inhibition of human ERG at 10 uM incubated for 2 hrs by fluorescence polarization assay relative to control. For orientation: Polarisation of emitted light reports the rotation of a fluorescent probe.
The next data set has as its target CYP2D6 (Homo sapiens, UniProt P10635). The experiment in a line: Inhibition of human microsomal CYP2D6 expressed in baculovirus infected insect cells at 10 uM using luciferin-ME as substrate preincubated with enzyme/substrate mixture for 30 mins followed by further incubation with NADPH for 30 mins by CYP450 luciferase Glo assay relative to control. In kind it is ADME. Particulars: probe luciferin-ME.

A word on the EC50: it is the concentration needed to bring the measured effect to its halfway point. What is called inhibition is the drop in the measured response relative to a control, in per cent. A word on the CC50: it is the concentration that lowers cell viability or growth by half.

CYP2C9, sequence (P11712 whole entry): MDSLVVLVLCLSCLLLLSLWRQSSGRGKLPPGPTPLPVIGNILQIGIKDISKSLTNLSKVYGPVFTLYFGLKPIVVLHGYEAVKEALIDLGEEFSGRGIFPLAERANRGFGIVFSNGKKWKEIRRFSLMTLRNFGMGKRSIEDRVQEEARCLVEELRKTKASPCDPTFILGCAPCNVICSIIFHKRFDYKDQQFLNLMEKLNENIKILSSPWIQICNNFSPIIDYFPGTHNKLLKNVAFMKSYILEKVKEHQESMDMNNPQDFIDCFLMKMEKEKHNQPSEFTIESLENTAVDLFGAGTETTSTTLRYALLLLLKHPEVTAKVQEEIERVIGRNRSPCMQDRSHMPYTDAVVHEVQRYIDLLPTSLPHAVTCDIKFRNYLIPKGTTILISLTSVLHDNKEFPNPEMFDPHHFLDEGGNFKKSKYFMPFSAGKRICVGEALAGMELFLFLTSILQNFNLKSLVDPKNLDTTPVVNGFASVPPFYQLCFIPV
CYP3A4, sequence (P08684 whole entry): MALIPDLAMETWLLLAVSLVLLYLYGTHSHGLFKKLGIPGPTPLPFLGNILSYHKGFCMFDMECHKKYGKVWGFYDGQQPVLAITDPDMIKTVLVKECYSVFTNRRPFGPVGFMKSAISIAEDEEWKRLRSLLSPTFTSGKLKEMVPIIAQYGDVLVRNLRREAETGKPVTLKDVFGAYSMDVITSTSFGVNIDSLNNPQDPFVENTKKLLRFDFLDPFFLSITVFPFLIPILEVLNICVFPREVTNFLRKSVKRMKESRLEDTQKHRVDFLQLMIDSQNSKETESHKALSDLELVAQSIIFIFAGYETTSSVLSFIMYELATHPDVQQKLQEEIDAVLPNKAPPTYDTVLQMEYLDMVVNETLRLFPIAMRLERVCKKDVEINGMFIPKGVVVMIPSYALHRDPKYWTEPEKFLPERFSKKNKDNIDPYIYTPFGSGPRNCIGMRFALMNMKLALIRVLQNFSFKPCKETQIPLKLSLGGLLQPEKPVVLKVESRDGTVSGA
CYP2D6, sequence (P10635 whole entry): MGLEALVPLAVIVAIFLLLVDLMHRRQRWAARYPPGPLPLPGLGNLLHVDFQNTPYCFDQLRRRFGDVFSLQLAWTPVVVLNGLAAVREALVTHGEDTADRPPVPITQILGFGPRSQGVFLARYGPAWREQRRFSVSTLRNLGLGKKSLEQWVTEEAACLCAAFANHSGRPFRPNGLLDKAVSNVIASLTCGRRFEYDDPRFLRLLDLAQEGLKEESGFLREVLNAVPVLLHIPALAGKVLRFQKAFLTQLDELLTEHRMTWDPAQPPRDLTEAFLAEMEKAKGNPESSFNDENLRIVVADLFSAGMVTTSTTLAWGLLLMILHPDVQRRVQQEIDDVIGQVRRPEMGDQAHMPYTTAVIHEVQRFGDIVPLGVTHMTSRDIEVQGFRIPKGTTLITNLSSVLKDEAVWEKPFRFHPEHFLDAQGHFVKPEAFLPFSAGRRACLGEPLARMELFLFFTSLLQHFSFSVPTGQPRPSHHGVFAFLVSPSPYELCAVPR
CYP2C19, sequence (P33261 whole entry): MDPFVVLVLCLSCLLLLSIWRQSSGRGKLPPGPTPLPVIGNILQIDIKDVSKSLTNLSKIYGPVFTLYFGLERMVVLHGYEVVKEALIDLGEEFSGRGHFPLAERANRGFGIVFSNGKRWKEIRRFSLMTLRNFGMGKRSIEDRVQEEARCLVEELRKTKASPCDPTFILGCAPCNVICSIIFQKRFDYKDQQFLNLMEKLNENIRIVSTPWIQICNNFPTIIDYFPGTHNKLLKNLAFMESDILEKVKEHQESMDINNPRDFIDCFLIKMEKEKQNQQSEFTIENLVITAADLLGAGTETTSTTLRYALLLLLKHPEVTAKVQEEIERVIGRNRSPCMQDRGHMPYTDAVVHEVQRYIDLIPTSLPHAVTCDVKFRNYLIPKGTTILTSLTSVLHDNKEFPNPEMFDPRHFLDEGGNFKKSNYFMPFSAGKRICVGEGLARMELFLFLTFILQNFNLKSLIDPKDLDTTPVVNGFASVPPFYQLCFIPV
hERG (KCNH2), sequence (Q12809 whole entry): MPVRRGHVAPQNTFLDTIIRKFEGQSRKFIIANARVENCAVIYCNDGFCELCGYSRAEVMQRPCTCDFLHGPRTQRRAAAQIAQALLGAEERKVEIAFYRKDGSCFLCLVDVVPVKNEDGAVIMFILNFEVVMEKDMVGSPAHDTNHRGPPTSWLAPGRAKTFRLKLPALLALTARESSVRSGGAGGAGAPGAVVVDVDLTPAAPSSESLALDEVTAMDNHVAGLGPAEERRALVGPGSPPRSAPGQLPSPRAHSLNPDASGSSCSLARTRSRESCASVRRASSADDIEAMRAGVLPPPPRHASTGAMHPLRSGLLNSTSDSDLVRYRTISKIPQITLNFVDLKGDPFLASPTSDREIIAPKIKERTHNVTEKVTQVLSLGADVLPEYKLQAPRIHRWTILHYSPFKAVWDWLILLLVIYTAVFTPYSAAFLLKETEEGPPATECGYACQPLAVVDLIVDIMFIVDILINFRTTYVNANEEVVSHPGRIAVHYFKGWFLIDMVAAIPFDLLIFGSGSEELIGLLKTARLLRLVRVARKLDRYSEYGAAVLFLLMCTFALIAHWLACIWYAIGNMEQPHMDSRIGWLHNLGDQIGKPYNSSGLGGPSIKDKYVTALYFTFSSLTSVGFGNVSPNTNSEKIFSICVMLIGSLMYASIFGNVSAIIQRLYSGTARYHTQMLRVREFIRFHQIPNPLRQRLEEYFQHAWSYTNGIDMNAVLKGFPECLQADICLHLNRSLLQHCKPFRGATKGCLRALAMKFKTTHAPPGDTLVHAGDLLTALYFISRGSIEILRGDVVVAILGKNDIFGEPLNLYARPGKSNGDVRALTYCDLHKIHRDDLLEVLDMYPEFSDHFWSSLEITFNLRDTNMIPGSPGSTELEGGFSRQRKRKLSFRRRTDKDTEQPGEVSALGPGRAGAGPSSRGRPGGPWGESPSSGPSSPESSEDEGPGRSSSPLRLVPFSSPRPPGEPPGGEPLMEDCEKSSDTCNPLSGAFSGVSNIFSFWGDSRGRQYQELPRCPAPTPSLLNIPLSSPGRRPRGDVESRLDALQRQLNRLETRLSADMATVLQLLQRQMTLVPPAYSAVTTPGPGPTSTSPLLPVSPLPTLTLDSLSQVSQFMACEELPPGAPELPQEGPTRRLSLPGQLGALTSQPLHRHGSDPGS

Take `CCCCC(=O)Oc1c(-c2csc3ccccc23)oc2ccc(OC)cc2c1=O`: the EC50 turned out to be 1.3 µM with Trypanosoma brucei and 2.4 µM in the data set with Leishmania infantum. For the same compound, the selectivity ratio in data set [1] came to 5. The inhibition at 0.5 h, 10 µM at CYP3A4 was 61.8%; at CYP2C9, 48.3%; on CYP2C19, 33.9%; at CYP1A2 it was 83.3%; on CYP2D6, 29.3%. The viability at 48 h in data set [2] is 12.4%. In addition, the CC50 in data set [3] was 12.5 to 25 µM. In the data set with 786-0, the Activity amounted to 0.75%. Also, at hERG (KCNH2), the inhibition at 2 h, 10 µM turned out to be 1.12%.
As for `O=c1c(O)c(-c2csc3ccccc23)oc2ccc(F)cc12`, the EC50 with Trypanosoma brucei amounted to 1.5 µM; in the data set on Leishmania infantum, 6 µM. Also, in [1], the selectivity ratio stood at 4. The inhibition at 0.5 h, 10 µM stood at 11.5% on CYP3A4; 25.4% on CYP2C9; 26% on CYP2C19; 86.4% at CYP1A2; 16.8% on CYP2D6. In addition, in [2], the viability at 48 h was found to be 99.1%. Further, in [3], the CC50 lay within 25 to 50 µM. Besides, the Activity with 786-0 is on record as -23.6%. Besides, the inhibition at 2 h, 10 µM against hERG (KCNH2) was -29.6%.
